Test results published in patent publication US20130177528A1, “COMPOSITIONS AND METHODS FOR INHIBITING VIRAL INFECTION” (WESTERN UNIVERSITY OF HEALTH SCIENCES, priority 2011, published 2013).

B1: ADAM15: ADAM15 (Ad15) polypeptide tested against HSV-1; exact construct not stated (protein, UniProt Q13444 207-863, looked up)
Disintegrin and …: DVVTETKTVELVIVADHSEAQKYRDFQHLLNRTLEVALLLDTFFRPLNVRVALVGLEAWTQRDLVEISPNPAVTLENFLHWRRAHLLPRLPHDSAQLVTGTSFSGPTVGMAIQNSICSPDFSGGVNMDHSTSILGVASSIAHELGHSLGLDHDLPGNSCPCPGPAPAKTCIMEASTDFLPGLNFSNCSRRALEKALLDGMGSCLFERLPSLPPMAAFCGNMFVEPGEQCDCGFLDDCVDPCCDSLTCQLRPGAQCASDGPCCQNCQLRPSGWQCRPTRGDCDLPEFCPGDSSQCPPDVSLGDGEPCAGGQAVCMHGRCASYAQQCQSLWGPGAQPAAPLCLQTANTRGNAFGSCGRNPSGSYVSCTPRDAICGQLQCQTGRTQPLLGSIRDLLWETIDVNGTELNCSWVHLDLGSDVAQPLLTLPGTACGPGLVCIDHRCQRVDLLGAQECRSKCHGHGVCDSNRHCYCEEGWAPPDCTTQLKATSSLTTGLLLSLLVLLVLVMLGASYWYRARLHQRLCQLKGPTCQYRAAQSGPSERPGPPQRALLARGTKQASALSFPAPPSRPLPPDPVSKRLQAELADRPNPPTRPLPADPVVRSPKSQGPAKPPPPRKPLPADPQGRCPSGDLPGPGAGIPPLVVPSRPAPPPPTVSSLYL

Key:
[1] = test system: HSV-2 (333 gJ-reporter virus); experiment: HSV-2 infection of HeLa cells, ONPG assay (Example 4); format: cell-based; conditions: virus pre-incubated; starting concentration 1 mg/ml
Method: In this experiment different clinical strains of HSV-1 (F, G, and MP strains of HSV-1 [37] at 25 pfu/cell) were either pre-incubated with 1×PBS (control) or with CN at the concentrations indicated in FIG. 8, panel A for 90 min at room temperature. After 90 min of incubation the two pools of viruses were incubated with Nectin-1 receptor expressing CHO Igβ cells that express β-galactosidase upon viral entry as described. The viral infection blocking was measured by ONPG assay (FIG. 8, panel A). Similar experiment was conducted using Lac Z encoded HSV-2 (333 gJ-reporter virus). HSV-2 is a genital herpes virus. […] Each value shown is the mean of three or more determinations (±SD).

HSV-1 (KOS) gL86 [2] = experiment: HSV-1 infection of HeLa, Vero and 293T cells, virus pre-incubated (Example 3); format: cell-based, herpes simplex virus type-1; conditions: HeLa cells; virus 30 pfu/cell pre-incubated 90 min; 6 hr
Method: CN blocks herpes simplex virus type-1 (HSV-1) infection of natural target cells. HeLa, Vero and 293T cells were each grown to 100% confluency in 96-well plates. The β-galactosidase-expressing recombinant virus HSV-1 (KOS) HSV-1 gL86 (30 pfu/cell) was pre-incubated with CN at the concentration indicated in FIG. 7 or mock treated with 1 X phosphate saline buffer for 90 min at room temperature. After 6 hr, the cells were washed, permeabilized and incubated with ONPG substrate (3.0 mg/ml). The β-gal enzymatic activity was measured at an optical density of 410 nm (OD 410). Each value shown in FIG. 7 is the mean of three or more determinations (±SD). Mock treated HSV-1 with PBS was used as a control. HSV-1 infection of HeLa (panel A) and Vero and 293T cells (panel B) was blocked by CN.

[3] = test system: β-galactosidase-expressing recombinant Adenovirus; experiment: Adenovirus infection of HeLa cells (Example 7); format: cell-based; conditions: similar experiments as for CN
Method: HeLa cells were infected with a β-galactosidase-expressing recombinant Adenovirus were pre-incubated with CN at (1) the dilution indicated in FIG. 11, panel A (stock concentration 22 nM) or (2) the concentrations indicated in FIG. 11, panel B, or mock treated with 1 X phosphate saline buffer for 90 min at room temperature. After 12 hr, the cells were washed, permeabilized and incubated with ONPG substrate (3.0 mg/ml) for quantitation of β-galactosidase activity expressed from the input viral genome. Positive (Pos) infected with virus alone; Negative (Neg) uninfected control. The enzymatic activity was measured at an optical density of 410 nm (OD 410).

HSV-1 (KOS) gL86 [4] = experiment: HSV-1 infection of HeLa cells at MOIs 5, 15 and 25 PFU/cell (Example 6); format: cell-based, herpes simplex virus type-1; conditions: virus pre-incubated 180 min, 6 hr
Method: HeLa cells were each grown to 100% confluency in 96-well plates. The β-galactosidase-expressing recombinant virus HSV-1 (KOS) HSV-1 gL86 […] was pre-incubated at MOIs of 5 (FIG. 10, panel A), 15 (FIG. 10, panel B) and 25 (FIG. 10, panel C) plaque-forming units per cell (PFU) with VCN (VN), CN or ADAM15 (Ad15) at the concentrations indicated or mock treated with 1 X phosphate saline buffer for 180 min at room temperature. After 6 hr, the cells were washed, permeabilized and incubated with ONPG substrate (3.0 mg/ml). The β-gal enzymatic activity was measured at an optical density of 410 nm (OD 410). Mock treated HSV-1 with PBS was used as a […] control ((+) infected with virus alone; (−) uninfected control).

Molecule | HSV-2 infection of HeLa cells (dose response, ONPG assay) [1] | HSV-1 infection (β-gal activity, OD 410) (HSV-1 (KOS) gL86 [2]) | IC50 [3] | HSV-1 infection of HeLa cells, blocking and rank order (β-gal activity, OD 410) (HSV-1 (KOS) gL86 [4])
vicrostatin [VCN] | significantly inhibited HSV-2 infection | blocked HSV-1 infection of HeLa cells | 21 µM | blocked by CN >VCN >ADAM15
B1 |  |  |  | blocked by CN >VCN >ADAM15
